Bounds are passed on as bounds.

Usually MIC stands for the least concentration at which growth counts as inhibited. Read a high MIC as a less susceptible organism.

For one data set, the system named is Staphylococcus aureus. Put plainly: Antibacterial activity against Staphylococcus aureus CIP 7625. It counts as functional.
The next data set has as its system Klebsiella pneumoniae. Description: Antibacterial activity against Klebsiella pneumoniae CIP 82.91. The data set is classed as functional.
A further data set deals with Pseudomonas aeruginosa. Description: Antibacterial activity against Pseudomonas aeruginosa 100720. The data set is classed as functional.
The next data set has as its system Acinetobacter baumannii. Put plainly: Antibacterial activity against Acinetobacter baumannii ATCC 19606. It counts as functional. The settings on record: ATCC 19606 = CIP 70.34 = JCM 6841.
For a further data set, the system named is Enterococcus faecium. Put plainly: Antibacterial activity against Enterococcus faecium 20477. It counts as functional.
The subject of another data set is Escherichia coli. Description: Antibacterial activity against Escherichia coli CIP 54.8. It counts as functional.
In the next data set the test system is HepG2. Description: Cytotoxicity against human HepG2 cells assessed as reduction in cell viability. The data set is classed as cell-based.

On to `CCCCCC[P+](CCCCCC)(CCCCCC)CCCCCC[P+](CCCC)(CCCC)CCCC.[Br-].[Br-]`, for which the MIC with Staphylococcus aureus is 2 µg/mL; against Klebsiella pneumoniae, more than 64 µg/mL; against Pseudomonas aeruginosa it was more than 64 µg/mL; against Acinetobacter baumannii, more than 64 µg/mL; in the data set on Enterococcus faecium, 8 µg/mL; in the data set with Escherichia coli, more than 64 µg/mL.

As for `CCCCCC[P+](CCCCCC)(CCCCCC)CCCCCCCCCC[P+](CCCC)(CCCC)CCCC.[Br-].[Br-]`, the MIC in the data set with Staphylococcus aureus stood at 0.5 µg/mL; against Klebsiella pneumoniae, 16 µg/mL; against Pseudomonas aeruginosa it was 64 µg/mL; against Acinetobacter baumannii it was 8 µg/mL; in the data set with Enterococcus faecium, 2 µg/mL; with Escherichia coli, 4 µg/mL. The Activity entry with HepG2 is listed as “Toxic”.

Take `CCCCCC[N+](CCCCCC)(CCCCCC)CCCCCCCCCC[N+](CCCCCC)(CCCCCC)CCCCCC.[Br-].[Br-]`: the minimum inhibitory concentration (MIC) was 0.5 µg/mL in the data set with Staphylococcus aureus; 4 µg/mL with Klebsiella pneumoniae; 8 µg/mL with Pseudomonas aeruginosa; 16 µg/mL against Acinetobacter baumannii; 0.5 µg/mL with Enterococcus faecium; 2 µg/mL in the data set with Escherichia coli. For the same compound, the Activity result with HepG2 is recorded as “Toxic”.

Consider `CCCCCC[P+](CCCCCC)(CCCCCC)CCCCCCCCCC[P+](CCCCCC)(CCCCCC)CCCCCC.[Cl-].[Cl-]`, for which the MIC against Staphylococcus aureus is 0.5 µg/mL; with Klebsiella pneumoniae, 2 µg/mL; in the data set on Pseudomonas aeruginosa, 4 µg/mL; in the data set on Acinetobacter baumannii it was 2 µg/mL; against Enterococcus faecium, 0.5 µg/mL; against Escherichia coli, 2 µg/mL.

Take `CCCCCCCC[P+](CCCCCCCC)(CCCCCCCC)CCCCCC[P+](CCCCCC)(CCCCCC)CCCCCC.[Br-].[Br-]`: the MIC in the data set on Staphylococcus aureus amounted to 1 µg/mL; in the data set on Klebsiella pneumoniae it was 4 µg/mL; against Pseudomonas aeruginosa, 8 µg/mL; with Acinetobacter baumannii, 4 µg/mL; against Enterococcus faecium, 2 µg/mL; in the data set with Escherichia coli, 8 µg/mL.

Turning to `CCCCCC[N+](CCCCCC)(CCCCCC)CCCCCC[N+](CCCCCC)(CCCCCC)CCCCCC.[Br-].[Br-]`, the minimal inhibitory concentration (MIC) against Staphylococcus aureus was 1 µg/mL; with Klebsiella pneumoniae, more than 64 µg/mL; in the data set with Pseudomonas aeruginosa it was more than 64 µg/mL; in the data set on Acinetobacter baumannii it was more than 64 µg/mL; in the data set on Enterococcus faecium, 1 µg/mL; in the data set on Escherichia coli, 32 µg/mL.

As to `CCCCCC[P+](CCCCCC)(CCCCCC)CCCCCCCCCC[P+](CCCCCC)(CCCCCC)CCCCCC.[I-].[I-]`, the MIC was found to be 0.5 µg/mL in the data set with Staphylococcus aureus; 2 µg/mL in the data set on Klebsiella pneumoniae; 2 µg/mL in the data set on Pseudomonas aeruginosa; 2 µg/mL in the data set with Acinetobacter baumannii; 0.5 µg/mL against Enterococcus faecium; 2 µg/mL in the data set with Escherichia coli.

Regarding `CCCCCCCC[P+](CCCCCCCC)(CCCCCCCC)CCCCCC[P+](CCCCCCCC)(CCCCCCCC)CCCCCCCC.[Br-].[Br-]`, the MIC in the data set on Staphylococcus aureus is 1 µg/mL; against Klebsiella pneumoniae, 32 µg/mL; against Pseudomonas aeruginosa, more than 64 µg/mL; in the data set with Acinetobacter baumannii, 8 µg/mL; with Enterococcus faecium, 2 µg/mL; with Escherichia coli, 32 µg/mL.

For the compound `CCCC[P+](CCCC)(CCCC)CCCCCCCCCC[P+](CCCC)(CCCC)CCCC.[Br-].[Br-]`, the MIC against Staphylococcus aureus is 16 µg/mL; against Klebsiella pneumoniae, more than 64 µg/mL; in the data set on Pseudomonas aeruginosa it was more than 64 µg/mL; in the data set on Acinetobacter baumannii, more than 64 µg/mL; with Enterococcus faecium, more than 64 µg/mL; against Escherichia coli, more than 64 µg/mL. In the data set on HepG2, the Activity result is “Toxic”.

As for `CCCC[P+](CCCC)(CCCC)CCCCCC[P+](CCCC)(CCCC)CCCC.[Br-].[Br-]`, the minimal inhibitory concentration (MIC) with Staphylococcus aureus, with Klebsiella pneumoniae, against Pseudomonas aeruginosa, against Acinetobacter baumannii, in the data set on Enterococcus faecium and against Escherichia coli was more than 64 µg/mL throughout.

As for `CCCCCCCC[P+](CCCCCCCC)(CCCCCCCC)CCCCCCCCCC[P+](CCCCCCCC)(CCCCCCCC)CCCCCCCC.[Br-].[Br-]`, the MIC in the data set with Staphylococcus aureus is 16 µg/mL; in the data set on Klebsiella pneumoniae, more than 64 µg/mL; against Pseudomonas aeruginosa, more than 64 µg/mL; in the data set with Acinetobacter baumannii, more than 64 µg/mL; with Enterococcus faecium, 32 µg/mL; in the data set with Escherichia coli, more than 64 µg/mL. Also, in the data set with HepG2, the Activity entry is on record as “Toxic”.

For `CCCCCC[P+](CCCCCC)(CCCCCC)CCCCCCCCCC[P+](CCCCCC)(CCCCCC)CCCCCC.[Br-].[Br-]`, the MIC in the data set with Staphylococcus aureus was determined as 0.5 µg/mL; against Klebsiella pneumoniae it was 4 µg/mL; in the data set on Pseudomonas aeruginosa, 4 µg/mL; in the data set on Acinetobacter baumannii, 4 µg/mL; against Enterococcus faecium it was 1 µg/mL; in the data set on Escherichia coli, 2 µg/mL. Also, the Activity result in the data set on HepG2 is on record as “Toxic”.

As to `CCCCCC[N+](CCCCCC)(CCCCCC)CCCCCCCCCC[P+](CCCC)(CCCC)CCCC.[Br-].[Br-]`, the MIC is 1 µg/mL against Staphylococcus aureus; 64 µg/mL against Klebsiella pneumoniae; more than 64 µg/mL with Pseudomonas aeruginosa; more than 64 µg/mL with Acinetobacter baumannii; 2 µg/mL with Enterococcus faecium; 16 µg/mL against Escherichia coli.

Regarding `CCCCCC[N+](CCCCCC)(CCCCCC)CCCCCCCCCC[P+](CCCCCC)(CCCCCC)CCCCCC.[Br-].[Br-]`, the MIC against Staphylococcus aureus is 0.5 µg/mL; in the data set on Klebsiella pneumoniae it was 2 µg/mL; against Pseudomonas aeruginosa, 8 µg/mL; with Acinetobacter baumannii, 8 µg/mL; with Enterococcus faecium it was 1 µg/mL; with Escherichia coli, 2 µg/mL. Besides, in the data set on HepG2, the Activity entry was “Toxic”.

As to `CCCCCC[P+](CCCCCC)(CCCCCC)CCCCCC[P+](CCCCCC)(CCCCCC)CCCCCC.[Br-].[Br-]`, the MIC worked out at 0.5 µg/mL in the data set on Staphylococcus aureus; 8 µg/mL in the data set with Klebsiella pneumoniae; 8 µg/mL against Pseudomonas aeruginosa; 16 µg/mL against Acinetobacter baumannii; 0.5 µg/mL with Enterococcus faecium; 4 µg/mL in the data set on Escherichia coli.

As to `CCCCCC[N+](CCCCCC)(CCCCCC)CCCCCC[P+](CCCC)(CCCC)CCCC.[Br-].[Br-]`, the MIC is 32 µg/mL with Staphylococcus aureus; more than 64 µg/mL against Klebsiella pneumoniae; more than 64 µg/mL with Pseudomonas aeruginosa; more than 64 µg/mL in the data set on Acinetobacter baumannii; 64 µg/mL against Enterococcus faecium; more than 64 µg/mL with Escherichia coli.

The values above are taken from ChEMBL document CHEMBL4665712, “Phosphonium-ammonium-based di-cationic ionic liquids as antibacterial over the ESKAPE group” (Bioorg Med Chem Lett, 2020).
